Laboratory results from US9663513B2, “Pyrimidine PDE10 inhibitors” (Merck Sharp & Dohme Corp., priority 2012, dated 2017).

What follows are compounds tested against human PDE10A2 (Homo sapiens (Human), UniProt Q9Y233) (assay: PDE10 fluorescence polarization (IMAP FP) inhibition assay). Details: human PDE10A2 from transfected AD293 cells; FAM-labeled cAMP 50 nM; apparent inhibition constant; read-out: PDE10A Ki.
Sequence of human PDE10A2 (Q9Y233 267-1055): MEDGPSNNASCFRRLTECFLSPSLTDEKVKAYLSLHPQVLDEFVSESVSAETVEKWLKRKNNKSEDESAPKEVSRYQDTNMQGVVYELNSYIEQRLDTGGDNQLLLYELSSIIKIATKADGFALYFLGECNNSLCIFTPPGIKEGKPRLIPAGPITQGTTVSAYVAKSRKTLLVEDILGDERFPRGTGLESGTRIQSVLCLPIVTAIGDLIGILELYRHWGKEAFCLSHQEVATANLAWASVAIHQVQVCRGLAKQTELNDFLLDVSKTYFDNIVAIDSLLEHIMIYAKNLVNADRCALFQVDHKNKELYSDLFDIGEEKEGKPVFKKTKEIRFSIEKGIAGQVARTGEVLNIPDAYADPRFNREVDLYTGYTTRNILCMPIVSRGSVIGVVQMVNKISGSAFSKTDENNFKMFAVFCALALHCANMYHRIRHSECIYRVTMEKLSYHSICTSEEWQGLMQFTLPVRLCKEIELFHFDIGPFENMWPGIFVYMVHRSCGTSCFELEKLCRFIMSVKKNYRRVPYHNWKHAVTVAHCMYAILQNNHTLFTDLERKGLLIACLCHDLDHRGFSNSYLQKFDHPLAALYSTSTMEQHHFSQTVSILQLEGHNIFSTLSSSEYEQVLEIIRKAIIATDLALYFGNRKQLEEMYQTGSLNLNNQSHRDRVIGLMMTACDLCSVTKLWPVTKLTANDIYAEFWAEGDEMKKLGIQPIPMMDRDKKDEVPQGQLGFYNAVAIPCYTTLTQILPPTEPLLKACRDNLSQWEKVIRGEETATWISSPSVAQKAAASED
Type: biochemical
Method: The activity of the compounds in accordance with the present invention as PDE10 inhibitors may be readily determined without undue experimentation using a fluorescence polarization (FP) methodology that is well known in the art (Huang, W., et al., J. Biomol Screen, 2002, 7: 215).
In a typical experiment the PDE10 inhibitory activity of the compounds of the present invention was determined in accordance with the following experimental method. PDE10A2 was amplified from human fetal brain cDNA (Clontech, Mountain View, Calif.) using a forward primer corresponding to nucleotides 56-77 of human PDE10A2 (Accession No. AF127480, Genbank Identifier 4894716), containing a Kozak consensus sequence, and a reverse primer corresponding to nucleotides 2406-2413 of human PDE10A2 (Accession No. AF127480, Genbank Identifier 4894716). Amplification with Easy-A polymerase (Stratagene, La Jolla, Calif.) was 95° C. for 2 minutes followed by thirty three cycles of 95° C. for 40 seconds, 55° C. for 30 seconds, and 72° C. for 2 minutes 48 seconds. Final extension was 72° C. for 7 minutes. The PCR product was TA cloned into pcDNA3.2-TOPO (Invitrogen, Carlsbad, Calif.) according to standard protocol. AD293 cells with 70-80% confluency were transiently transfected with human PDE10A2/pcDNA3.2-TOPO using Lipofectamine 2000 according to manufacturer specifications (Invitrogen, Carlsbad, Calif.). Cells were harvested 48 hours post-transfection and lysed by sonication (setting 3, 10×5 sec pulses) in a buffer containing 20 mM HEPES, 1 mM EDTA and protease inhibitor cocktail (Roche). Lysate was collected by centrifugation at 75,000×g for 20 minutes. Supernatant containing the cytoplasmic fraction was used for evaluation of PDE10A2 activity. The fluorescence polarization assay for cyclic nucleotide phosphodiesterases was performed using an IMAP® FP kit supplied by Molecular Devices, Sunnyvale, Calif. (product # R8139). IMAP® technology has been applied previously to phosphodiesterase assays (Huang, W., et al., J. Biomol Screen, 2002, 7: 215). Assays were performed at room temperature in 384-well microtiter plates with an incubation volume of 20.2 μL. Solutions of test compounds were prepared in DMSO and serially diluted with DMSO to yield 8 μL of each of 10 solutions differing by 3-fold in concentration, at 32 serial dilutions per plate. […] 0% of inhibition is determined by using DMSO (1% final concentrations).
A Labcyte Echo 555 (Labcyte, Sunnyvale, Calif.) is used to dispense 200 nL from each well of the titration plate to the 384 well assay plate. A solution of enzyme (1/1600 dilution from aliquots; sufficient to produce 20% substrate conversion) and a separate solution of FAM-labeled cAMP PDE from Molecular Devices (product # R7506), at a final concentration of 50 nM are made in the assay buffer (10 mM Tris HCl, pH 7.2, 10 mM MgCl2, 0.05% NaN3 0.01% Tween-20, and 1 mM DTT). The enzyme and the substrate are then added to the assay plates in two consecutive additions of 10 μL, and then shaken to mix. The reaction is allowed to proceed at room temperature for 30 minutes. […] The enzymatic reaction is stopped by addition of 60 μL of the binding solution to each well of the assay plates and the plates are sealed and shaken for 10 seconds. The plate was incubated at room temperature for at least one hour prior to determining the fluorescence polarization (FP). The parallel and perpendicular fluorescence of each well of the plate was measured using a Perkin Elmer EnVision™ plate reader (Waltham, Mass.).
Fluorescence polarization (mP) was calculated from the parallel (S) and perpendicular (P) fluorescence of each sample well and the analogous values for the median control well, containing only substrate (So and Po), using the following equation: Polarization(mP)=1000*(S/So−P/Po)/(S/So+P/Po).
Dose-inhibition profiles for each compound were characterized by fitting the mP data to a four-parameter equation given below.
For `Cc1ccc([C@H]2C[C@@H]2COc2nc(C)ncc2-c2ccc(F)c(F)c2)nc1` [Example 15, 5-(3,4-difluorophenyl)-2-methyl-4-(((1S,2S)-2-(5-methylpyridin-2-yl)cyclopropyl)methoxy)pyrimidine], the Ki was 1.11 nM.
In the case of `Cc1ncc(-c2cnc3[nH]ncc3c2)c(OC[C@H]2C[C@@H]2c2ccc3ccccc3n2)n1` (single isomer, unassigned) [Example 152], the Ki is reported as 1.78 nM.
`Cc1ccc([C@H]2C[C@@H]2COc2nc(C)ncc2-c2cnnc(C)c2)nc1` [Example 58, 3-methyl-5-(2-methyl-4-(((1S,2S)-2-(5-methylpyridin-2-yl)cyclopropyl)methoxy)pyrimidin-5-yl)pyridazine] gave a Ki of 3.02 nM.
In the case of `COc1ccc([C@H]2C[C@@H]2COc2nc(C)ncc2-c2nn[nH]c2CO)nc1` [Example 249, (4-(4-(((1S,2S)-2-(5-methoxypyridin-2-yl)cyclopropyl)methoxy)-2-methylpyrimidin-5-yl)-1H-1,2,3-triazol-5-yl)methanol], the Ki is reported as 15.7 nM.
`Cc1ncc(-c2ccc(C(C)(C)O)nc2)c(OC[C@H]2C[C@@H]2c2ccc(C#N)cn2)n1` [Example 182, 6-((1S,2S)-2-((5-(6-(2-hydroxypropan-2-yl)pyridin-3-yl)-2-methylpyrimidin-4-yloxy)methyl)cyclopropyl)nicotinonitrile] showed a Ki of 17.8 nM.
`COc1ccc([C@H]2C[C@@H]2COc2nc(C)ncc2[C@@H]2CC[C@@H](O)C2)nc1` [Example 80, (1R,3R)-3-(4-(((1S,2S)-2-(5-methoxypyridin-2-yl)cyclopropyl)methoxy)-2-methylpyrimidin-5-yl)cyclopentanol] showed a Ki of 5.48 nM.
Work on `COc1ccc([C@H]2C[C@@H]2COc2nc(C)ncc2-c2ccc(-c3noc(CO)n3)cc2)nc1` [Example 252, (3-(4-(4-(((1S,2S)-2-(5-methoxypyridin-2-yl)cyclopropyl)methoxy)-2-methylpyrimidin-5-yl)phenyl)-1,2,4-oxadiazol-5-yl)methanol] yielded a Ki of 2.03 nM.
`Cc1ccc([C@H]2C[C@@H]2COc2nc(C)ncc2C2CCC3(CC2)OCCO3)nc1` [Example 184, 2-methyl-4-(((1S,2S)-2-(5-methylpyridin-2-yl)cyclopropyl)methoxy)-5-(1,4-dioxaspiro[4.5]decan-8-yl)pyrimidine] showed a Ki of 2.81 nM.
In the case of `CCc1ccc(-c2cnc(C)nc2OC[C@H]2C[C@@H]2c2ccc3ccccc3n2)cc1` (single isomer, unassigned) [Example 30], the Ki is reported as 0.37 nM.
`COc1ccc([C@H]2C[C@@H]2COc2nc(C)ncc2-c2ccc(O)nc2)nc1` [Example 69, 5-(4-(((1S,2S)-2-(5-methoxypyridin-2-yl)cyclopropyl)methoxy)-2-methylpyrimidin-5-yl)pyridin-2-ol] showed a Ki of 0.94 nM.
`Cc1ncc([C@H]2CC[C@@H](O)CC2)c(OC[C@H]2C[C@H]2c2ccc3ccccc3n2)n1` [Example 193, (1R,4s)-4-(2-methyl-4-(((1S,2R)-2-(quinolin-2-yl)cyclopropyl)methoxy)pyrimidin-5-yl)cyclohexanol] was tested, and the Ki was 0.07 nM.
Compound `COc1ccc([C@H]2C[C@@H]2COc2nc(C)ncc2-c2cc(Cl)ncc2C(F)(F)F)nc1` [Example 88, 5-(2-chloro-5-(trifluoromethyl)pyridin-4-yl)-4-(((1S,2S)-2-(5-methoxypyridin-2-yl)cyclopropyl)methoxy)-2-methylpyrimidine] has a Ki of 0.99 nM.
With `CCc1ccc(-c2cnc(C)nc2OC[C@H]2C[C@@H]2c2ccc3ccccc3n2)cc1` (single isomer, unassigned) [Example 31] the Ki was 7.95 nM.
`Cc1ccc([C@H]2C[C@@H]2COc2nc(C)ncc2-c2ccc(C(O)C(F)(F)F)nc2)nc1` (stereo partly shown) [Example 146] gave a Ki of 0.25 nM.
Work on `Cc1ccnc([C@H]2C[C@@H]2COc2nc(C)ncc2C2CCC(=O)CC2)c1` [Example 203, 4-(2-methyl-4-(((1S,2S)-2-(4-methylpyridin-2-yl)cyclopropyl)methoxy)pyrimidin-5-yl)cyclohexanone] yielded a Ki of 30.8 nM.
In the case of `Cc1ncc(-c2ccc(C(F)(F)F)nc2)c(OC[C@H]2C[C@@H]2c2ccc3ccccc3n2)n1` [Example 156, 2-((1S,2S)-2-((2-methyl-5-(6-(trifluoromethyl)pyridin-3-yl)pyrimidin-4-yloxy)methyl)cyclopropyl)quinoline], the Ki is reported as 0.12 nM.
`COc1ccc([C@H]2C[C@@H]2COc2nc(C)ncc2-c2ccc(-c3nnnn3C)nc2)nc1` [Example 231, 4-(((1S,2S)-2-(5-methoxypyridin-2-yl)cyclopropyl)methoxy)-2-methyl-5-(6-(1-methyl-1H-tetrazol-5-yl)pyridin-3-yl)pyrimidine] gave a Ki of 1.78 nM.
Compound `Cc1ccc([C@H]2C[C@@H]2COc2nc(C)ncc2-c2cccc(C(C)C)c2)nc1` [Example 4, 5-(3-isopropylphenyl)-2-methyl-4-(((1S,2S)-2-(5-methylpyridin-2-yl)cyclopropyl)methoxy)pyrimidine] has a Ki of 2.14 nM.
In the case of `COc1ccc([C@H]2C[C@@H]2COc2nc(C)ncc2-c2ccc(C3(O)CCC3)nc2)nc1` [Example 92, 1-(5-(4-(((1S,2S)-2-(5-methoxypyridin-2-yl)cyclopropyl)methoxy)-2-methylpyrimidin-5-yl)pyridin-2-yl)cyclobutano1], the Ki is reported as 0.12 nM.
Work on `Cc1ccc([C@H]2C[C@@H]2COc2nc(C)ncc2-c2ccc3nccn3c2)nc1` [Example 137, 6-(2-methyl-4-(((1S,2S)-2-(5-methylpyridin-2-yl)cyclopropyl)methoxy)pyrimidin-5-yl)imidazo[1,2-a]pyridine] yielded a Ki of 0.63 nM.
Compound `Cc1ccc([C@H]2C[C@@H]2COc2nc(C)ncc2[C@H]2CC[C@@](C)(O)CC2)nc1` [Example 212, (cis)1-Methyl-4-(2-methyl-4-(((1S,2S)-2-(5-methylpyridin-2-yl)cyclopropyl)methoxy)pyrimidin-5-yl)cyclohexanol] has a Ki of 12.4 nM.
In the case of `Cc1ncc([C@H]2CC[C@H](O)CC2)c(OC[C@H]2C[C@@H]2c2ccccn2)n1` [Example 199, Trans-4-(2-methyl-4-(((1S,2S)-2-(pyridin-2-yl)cyclopropyl)methoxy)pyrimidin-5-yl)cyclohexanol], the Ki is reported as 4.79 nM.
For `Cc1cccc([C@H]2C[C@@H]2COc2nc(C)ncc2-c2cn(C)nc2C(C)O)n1` (stereo partly drawn) [Example 161, 1-(1-methyl-4-(2-methyl-4-(((1S,2S)-2-(6-methylpyridin-2-yl)cyclopropyl)methoxy)pyrimidin-5-yl)-1H-pyrazol-3-yl)ethanol], the Ki was 2.28 nM.
`Cc1ccc([C@H]2C[C@@H]2COc2nc(C)ncc2-c2ccc(C)cc2C)nc1` [Example 2, 5-(2,4-dimethylphenyl)-2-methyl-4-(((1S,2S)-2-(5-methylpyridin-2-yl)cyclopropyl)methoxy)pyrimidine] was tested, and the Ki was 2.44 nM.
For `COc1ccc([C@H]2C[C@@H]2COc2nc(C)ncc2-c2ocnc2C)nc1` [Example 257, 5-(4-(((1S,2S)-2-(5-methoxypyridin-2-yl)cyclopropyl)methoxy)-2-methylpyrimidin-5-yl)-4-methyloxazole], the Ki was 0.91 nM.
In the case of `Cc1cccc([C@H]2C[C@@H]2COc2nc(C)ncc2-c2ccc(C(C)(C)O)nc2)n1` (single isomer, unassigned) [Example 175], the Ki is reported as 0.2 nM.
In the case of `COc1cc(-c2cnc(C)nc2OC[C@H]2C[C@@H]2c2ccc(C)cn2)cnn1` [Example 56, 3-methoxy-5-(2-methyl-4-(((1S,2S)-2-(5-methylpyridin-2-yl)cyclopropyl)methoxy)pyrimidin-5-yl)pyridazine], the Ki is reported as 6.12 nM.
`COc1ccc([C@H]2C[C@@H]2COc2nc(C)ncc2C2=CC(=O)CC2)nc1` [Example 76, 3-(4-(((1S,2S)-2-(5-methoxypyridin-2-yl)cyclopropyl)methoxy)-2-methylpyrimidin-5-yl)cyclopent-2-enone] gave a Ki of 0.48 nM.
